Data set [1] has as its target system LAT1 transporter of the blood–brain barrier (Rattus norvegicus, UniProt Q63016). The data set is described as follows: in situ rat brain perfusion: inhibition of L-[14C]-leucine uptake into rat brain. Particulars: in vivo.
For the next data set, the system named is system LAT1 transporter. Particulars: cited from earlier work; for Ki: read-out: Ki for the system L transporter.
For data set [2] the following is noted: cited from earlier work.
For data set [3] the following is noted: cited from earlier work. The source holds these as a separate data set.
Setting [4] is: read-out: Km for system LAT1 transporter.

Read-outs that look alike come from different tables or passages of the source.

Chain of system LAT1 transporter of the blood–brain barrier (Q63016 whole entry, the tested form may be a part): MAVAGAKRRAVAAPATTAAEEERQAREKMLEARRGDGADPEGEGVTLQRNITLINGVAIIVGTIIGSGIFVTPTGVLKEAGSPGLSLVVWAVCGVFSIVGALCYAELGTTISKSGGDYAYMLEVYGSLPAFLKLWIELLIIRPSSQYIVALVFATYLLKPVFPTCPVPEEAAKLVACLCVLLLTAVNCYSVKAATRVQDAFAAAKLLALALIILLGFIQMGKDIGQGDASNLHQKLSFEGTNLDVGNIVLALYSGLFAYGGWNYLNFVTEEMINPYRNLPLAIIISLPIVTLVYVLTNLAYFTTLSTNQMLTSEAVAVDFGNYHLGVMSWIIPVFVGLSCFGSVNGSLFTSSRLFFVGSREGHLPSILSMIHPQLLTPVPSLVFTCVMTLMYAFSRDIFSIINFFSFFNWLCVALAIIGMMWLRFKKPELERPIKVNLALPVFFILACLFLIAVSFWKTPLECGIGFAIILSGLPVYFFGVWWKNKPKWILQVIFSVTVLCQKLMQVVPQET
Chain of system LAT1 transporter of the blood–brain barrier (Q794F9 whole entry partner, the tested form may be a part): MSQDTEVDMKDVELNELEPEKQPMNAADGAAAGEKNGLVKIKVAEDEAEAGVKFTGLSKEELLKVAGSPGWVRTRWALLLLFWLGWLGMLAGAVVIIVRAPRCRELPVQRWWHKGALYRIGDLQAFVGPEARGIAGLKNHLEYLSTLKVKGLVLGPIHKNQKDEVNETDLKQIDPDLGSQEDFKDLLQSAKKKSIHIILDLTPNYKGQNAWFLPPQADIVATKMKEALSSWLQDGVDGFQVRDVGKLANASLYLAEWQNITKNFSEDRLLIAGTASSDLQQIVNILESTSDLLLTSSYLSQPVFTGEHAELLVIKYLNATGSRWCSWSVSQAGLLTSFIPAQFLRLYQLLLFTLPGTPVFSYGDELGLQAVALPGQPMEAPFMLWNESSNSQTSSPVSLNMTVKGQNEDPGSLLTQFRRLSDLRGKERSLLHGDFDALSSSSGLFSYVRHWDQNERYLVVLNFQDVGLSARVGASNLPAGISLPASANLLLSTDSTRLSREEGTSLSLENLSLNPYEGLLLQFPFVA

Take `NC1(C(=O)O)CC2CC1c1cc(N(CCCl)CCCl)ccc12` (mixture of isomers) [compound 7, (±)-2-endo-amino-bis(2-chloroethyl)-7′-aminobenzobicyclo[2.2.1]heptane-2-exo-carboxylic acid]: the “times lower affinity for the system LAT1 transporter than 5c” value in data set [1] was found to be 25 times.
For the compound `NC1(C(=O)O)CCc2ccccc2C1` (racemic) [compound 3, DL-2-amino-1,2,3,4,-tetrahydronaphthoic acid, reference compound], the Km in the data set on system LAT1 transporter (setting [4]) is 7.1 µM.
`NC1(C(=O)O)CCc2c(cccc2N(CCCl)CCCl)C1` (centres unmarked) [5a]: the inhibitory constant (Ki) on system LAT1 transporter was roughly 25 µM. Moreover, the “times lower affinity for the system LAT1 transporter than 5c” value in data set [1] turned out to be 100 times.
Take `NC1(C(=O)O)CCc2ccc(N(CCCl)CCCl)cc2C1` (centres unmarked) [5c]: the “myelosuppressive activity compared to melphalan” value in data set [2] is on record as “reduced”. Also, in the data set with system LAT1 transporter, the “Vmax of uptake into brain by blood–brain barrier system LAT1 transporter” value was 0.26 nmol/min/g and the Ki was roughly 0.2 µM. Moreover, the Km in the data set on system LAT1 transporter (setting [4]) was 0.19 µM. Further, the “in vitro antitumor activity compared to melphalan” value in data set [3] is reported as “enhanced”.
Take `N[C@@H](Cc1ccc(N(CCCl)CCCl)cc1)C(=O)O` [compound 2, Melphalan, reference compound]: the Km with system LAT1 transporter (read-out: Km for system LAT1, estimated) is 90 to 150 µM.
For `NC1(C(=O)O)CC2CCC1C2` (centres unmarked) [compound 4, reference compound], the “affinity for the system LAT1 transporter” value with system LAT1 transporter (in vivo) was “good affinity”.

As usually defined, the Km is the substrate concentration at which the rate is half of its maximum. For orientation: Ki means a dissociation constant, usually derived from enzyme kinetics or from competition with a known ligand.
